Laboratory results taken from patent US7063946B2, “Methods, reagents, kits and apparatus for protein function analysis” (Meso Scale Technologies, LLC., priority 2001, dated 2006).
Where a SMILES comes first, the peptide text is derived from it.

Columns and labels:
[1] = test system: tyrosine kinases reported to be the target of each inhibitor; conditions: read-out: reported IC50 concentration (1× concentration); for the kinase reported to be the target of the inhibitor; cited from earlier work
EphB4 = target: T1, EphB4 (Mus musculus, UniProt P54761); test: Kinase inhibitor profiling, autophosphorylation; type: biochemical
T1 construct: specificity data for proteins generated from a library of eighteen full-length clones; host or cells: rabbit reticulocyte lysate, TnT coupled in vitro transcription/translation (cell-free)
T1 sequence (P54761 16-987): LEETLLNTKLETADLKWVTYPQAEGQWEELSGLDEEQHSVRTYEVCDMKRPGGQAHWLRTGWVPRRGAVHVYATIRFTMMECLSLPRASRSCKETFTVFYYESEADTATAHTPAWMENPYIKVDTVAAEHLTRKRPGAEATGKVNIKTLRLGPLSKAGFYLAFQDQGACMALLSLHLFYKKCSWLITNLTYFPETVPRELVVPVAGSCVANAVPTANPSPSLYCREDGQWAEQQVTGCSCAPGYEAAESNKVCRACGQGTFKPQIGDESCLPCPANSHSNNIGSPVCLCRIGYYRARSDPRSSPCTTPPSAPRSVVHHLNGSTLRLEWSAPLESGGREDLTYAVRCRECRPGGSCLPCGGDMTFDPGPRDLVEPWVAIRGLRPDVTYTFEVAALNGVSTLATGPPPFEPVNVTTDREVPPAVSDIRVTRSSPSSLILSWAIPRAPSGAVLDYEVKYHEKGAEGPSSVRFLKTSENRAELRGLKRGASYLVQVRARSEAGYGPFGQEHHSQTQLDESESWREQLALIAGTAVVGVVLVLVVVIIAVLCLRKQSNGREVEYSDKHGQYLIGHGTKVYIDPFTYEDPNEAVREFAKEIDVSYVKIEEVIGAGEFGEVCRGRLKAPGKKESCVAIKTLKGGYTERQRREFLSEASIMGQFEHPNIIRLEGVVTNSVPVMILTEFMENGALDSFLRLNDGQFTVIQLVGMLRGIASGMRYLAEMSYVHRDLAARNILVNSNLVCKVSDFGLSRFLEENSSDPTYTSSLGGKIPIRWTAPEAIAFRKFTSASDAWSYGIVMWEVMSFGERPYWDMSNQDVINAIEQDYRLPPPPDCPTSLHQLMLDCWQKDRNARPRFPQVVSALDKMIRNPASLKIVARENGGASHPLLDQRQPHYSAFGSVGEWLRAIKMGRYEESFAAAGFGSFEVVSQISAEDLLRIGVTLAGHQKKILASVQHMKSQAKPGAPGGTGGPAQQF
Experimental: Proteins were produced from DNA plasmids of Mock Luciferase, Promega, tyrosine kinase clone Spleen Tyrosine kinase (SYK, IMAGE ID# 3870426) and Eph receptor-A7 (EphA7, IMAGE ID# 3991628) (Incyte Genomics, CA) and immobilized on streptavidin or avidin coated NPT-IPR plates as described in the Example 7. To promote autophosphorylation in these immobilized and purified proteins, Mn++ ions were added in a 50 μl reaction containing 5 mM MgCl2, 5 mM MnCl2, 100 μM ATP, 25 mM Tris-HCl buffer pH 7.4, 0.05 mM Na3VO4, 0.004% TritonX-100, 2 mM DTT and EDTA-free protease inhibitor (Roche Molecular Biochemicals). This mixture was incubated with shaking at room temperature overnight to allow autophosphorylation. Following this incubation, wells were washed 2 times with TT-buffer and 2 times with water. Following this step, 50 ng Sulfo-TAG labeled anti-phosphotyrosine in buffer containing 25 mM Tris-HCl buffer pH 7.4, 5 mM MgCl2, 0.05 mM Na3VO4, 0.004% TritonX-100, 2 mM DTT and 0.05% IgG in a final volume of 50 μl was added followed by incubation at room temperature for 45 min. The unbound reagents were removed by one time washing with water, and the TAG label was detected in presence of 150 μl IPR assay buffer (0.4 mM Gly—Gly buffer, pH 7.8, 1 mM EDTA, 0.1 M TPA). The ECL signals were measured using an imaging plate reader.
Proteins were produced using 100 ng of plasmid DNA Mock (Luciferase, Promega) or tyrosine kinases (Fert2 IMAGE ID # 4485050, FGFR1 IMAGE ID # 4037899, Fgfr2 IMAGE ID # 2654352, Src IMAGE ID # 3156400, BMX IMAGE ID # 3919253, LCK IMAGE ID # 4191610, Epha7 IMAGE ID # 3991628, Ephb4 IMAGE ID # 4013934, Tek IMAGE ID # 3482498, HCK IMAGE ID # 4778819, BTK IMAGE ID # 4478463, CSK IMAGE ID # 4398416, SYK IMAGE ID # 3870426, FGR IMAGE ID # 4419973, PTK2B IMAGE ID # 4339456, FRK(IMAGE ID # 4515877, Kit IMAGE ID # 2644960, Fgfr-4 IMAGE ID # 4239139, NTRK3 IMAGE ID # 4181574, Kdr IMAGE ID # 4238984, Incyte Genomics, CA) and immobilized on SA or avidin coated NPT-IPR plates as described in previous examples. The unbound components of the translation reaction (including any endogenous kinases) were removed by 3 washes with TT-buffer (25 mM Tris-HCl buffer pH 7.4 and 0.004% Triton), two five minutes washes with high-salt wash buffer (25 mM Tris-HCl buffer pH 7.4, 0.004% Triton, 1M NaCl and 5 mM DTT) and 3 washes with TT-buffer. […] The mixture was incubated at room temperature for 10 mm before starting the kinase reaction by adding 25 μl of 200 μM ATP in buffer A. This mixture was incubated with intermittent shaking at room temperature for 2 hours to overnight to allow (a) phosphorylation of the pEY substrate and (b) autophosphorylation of the immobilized kinases. Autophosphorylation and phosphorylation of the pEY was measured as described in Examples 7 and 8.
The ECL signal in control wells produced by tyrosine kinases was compared to the wells containing inhibitor compounds. The signal produced from Mock was negligible.

[2] = test system: N-end rule pathway ubiquitylation in reticulocyte lysate; test: ECL ubiquitylation assay using Sulfo-TAG-labeled streptavidin and IPR plate coated with FK2 antibody; type: biochemical, rabbit; conditions: RGS4 plasmid; for fold reduction of the RGS4 ECL signal in the presence of dipeptide inhibitor: 1 mM dipeptide; for IPR readings, Experiment 1 / IPR readings, Experiment 2: 1 mM dipeptide inhibitor with 50 μM bestatin
Experimental: Binding Buffer 2 (BB2) refers to 25 mM Tris-HCl buffer pH 7.4 containing 100 mM NaCl, 0.05 mM Na3VO4, 0.004% TritonX-100, 2 mM DTT and protease inhibitors (protease inhibitor cocktail, EDTA free, Roche Applied Science). Proteins were produced by coupled transcription/translation using TnT reaction mixes (Promega Corp, WI). The TNT Quick coupled transcription-translation system (Promega) contains rabbit reticulocyte lysate pre-mixed with most of the reaction components necessary to carry out transcription and translation in vitro (TNT mix), including all the amino acids except methionine. Unless otherwise noted, biotin-labeled in vitro translated proteins were produced in reaction mixtures that contained 8–30 μg/ml of a selected plasmid encoding protein of interest, 5 μl of TNT T7 Quick reticulocyte lysate mix (Promega Corp, WI) or TnT SP6 Quick Coupled Transcription/Translation System (Promega Corp, WI), 20 μM methionine, 50 μM MG-132 (Calbiochem, proteasome inhibitor to inhibit degradation of ubiquitylated proteins by proteasome) and 20 μg/ml biotinylated Lys-tRNA (transcend tRNA, Promega). The reactions were allowed to proceed for 20–90 min at 30° C. The reactions were stopped by the addition of BB1 supplemented with 20 mM AMP-PNP (Sigma, a non-hydrolyzable ATP analog), 20 mM N-ethylmaleimide (Sigma, an irreversible inhibitor of deubiquitylating enzymes) or, alternatively, by the addition of BB2. BB1 was used in screens involving the ubiquitination pathway. BB2 was used for other assay formats. The produced proteins were used in the assays of interest with or without further purification.
Transcription-translation reaction mixtures were prepared as described in the Example 1 except that no labeled ubiquitin was added. Some reactions also contained 1 mM dipeptide inhibitor of the N-end rule pathway (either Arg-β-Ala, or Trp-Ala) together with 50 μM bestatin as indicated (Table 2). The reaction was allowed to proceed for 20 min at 30° C. Then 1 μl of the reaction was mixed with 50 μl of BB1 supplemented with 20 mM AMP-PNP, 20 mM N-ethylmaleimide, and 2 μg/ml Sulfo-TAG-labeled streptavidin in a well of an IPR plate coated with an anti-ubiquitin antibody (FK2 antibody, Affiniti). […] In a typical assay the presence of RGS4-encoding plasmid produced a 30–100 fold higher ECL signal compared to the empty vector (FIG. 2, Table 2). This signal was reduced 3–4 fold in the presence of Arg-β-Ala (a type 1 inhibitor of the N-end rule pathway), but not in the presence of Trp-Ala (a type 2 inhibitor of the N-end rule pathway) in agreement with the previous report that RGS4 is a type 1 N-end rule substrate in reticulocyte lysates (Davydov and Varshavsky, 2000, J. Biol. Chem., 275:22931–22941). In the same assay RGS4 produced 3–5 fold higher ECL signal compared to RGS4C2V, when the same amounts of the corresponding plasmids were added to the reaction mixtures (Table 2).

[3] = test system: N-end rule pathway ubiquitylation in reticulocyte lysates; test: ECL ubiquitylation assay of EST clone proteins, FK2 antibody coated IPR plate; type: biochemical, rabbit
Experimental: The following EST clones in bacteria were obtained: IMAGE ID #, 3446518, 3446518, 3446518, 3914731 (RGS4), 3914731 (RGS4), 3914731 (RGS4) (Incyte, Palo Alto). Bacteria containing EST clones were grown in 2 ml LB with 50 μg/ml Amp, and DNA was isolated using QIAprep Spin Miniprep Kit (Qiagen). DNA yield was 5–20 μg.
Proteins were prepared from the EST clones in transcription-translation reaction mixtures (total volume 12.5 uL) as described in the Materials and Methods except for the addition of 1 μM Ub aldehyde (Calbiochem). Then 1 μl of the reaction product was mixed with 50 μl of BB1 supplemented with 20 mM AMP-PNP, 20 mM N-ethylmaleimide and 2 μg/ml Sulfo-TAG-labeled streptavidin in to each well of an IPR plate coated with FK2 antibody.
As previously reported, RGS4 is a substrate of the N-end rule-dependent ubiquitylation in reticulocyte lysates (Davydov and Varshavsky, 2000, J. Biol. Chem., 275:22931–22941). To determine if the protein produced from clone 3446518 was similarly ubiquitylated through the N-end rule pathway, the ECL ubiquitylation assay was performed in the presence of dipeptide inhibitors Arg-β-Ala (type 1 inhibitor of the N-end rule pathway), or Trp-Ala (type 2 inhibitor of the same pathway). As was shown on FIG. 2, the RGS4 signal was reduced 3–4 fold in the presence of Arg-β-Ala (a type 1 inhibitor of the N-end rule pathway), but not in the presence of Trp-Ala (a type 2 inhibitor of the N-end rule pathway) in agreement with the previous report that RGS4 is a type 1 N-end rule substrate in reticulocyte lysates (Davydov and Varshavsky, 2000, J. Biol. Chem., 275:22931–22941). In contrast, the dipeptides had little effect on the assay signal from clone 3446518 (FIG. 2). Thus, a different pathway of the ubiquitin system mediates ubiquitylation of the protein produced from clone 3446518.

[4] = clone 3446518 in the presence of dipeptide inhibitor
[5] = clone 3914731 (RGS4) in the presence of dipeptide inhibitor

SMILES: N#C/C(=C\c1ccc(O)c(O)c1)C(=O)c1ccc(O)c(O)c1 [AG-538]
- IC50 [1]: 60 nM
- Inhibition specificity towards Autophosphorylation at 10X IC50, Ephb4 (EphB4): L (low inhibition (“L”=between 50–75% of the activity remaining))

SMILES: N=C(N)NCCC[C@H](N)C(=O)NCCC(=O)O [Arg-β-Ala]
- fold reduction of the RGS4 ECL signal in the presence of dipeptide inhibitor [2]: 3–4 fold
- IPR readings, Experiment 1 [2]: 6224
- IPR readings, Experiment 2 [2]: 6184
- fold reduction of the RGS4 signal in the presence of dipeptide inhibitor ([3]; RGS4): 3–4 fold
- ECL readings, Experiment 1 [3, 4]: 10484
- ECL readings, Experiment 2 [3, 4]: 10829
- ECL readings, Experiment 3 [3, 4]: 9665
- ECL readings, Experiment 1 [3, 5]: 15074
- ECL readings, Experiment 2 [3, 5]: 15016
- ECL readings, Experiment 3 [3, 5]: 14555

SMILES: C[C@H](NC(=O)[C@@H](N)Cc1c[nH]c2ccccc12)C(=O)O [Trp-Ala] (H-Trp-Ala-OH)
- fold reduction of the RGS4 ECL signal in the presence of dipeptide inhibitor [2]: not
- IPR readings, Experiment 1 [2]: 19196
- IPR readings, Experiment 2 [2]: 19268
- ECL readings, Experiment 1 [3, 4]: 11249
- ECL readings, Experiment 2 [3, 4]: 11550
- ECL readings, Experiment 3 [3, 4]: 11464
- ECL readings, Experiment 1 [3, 5]: 41229
- ECL readings, Experiment 2 [3, 5]: 40401
- ECL readings, Experiment 3 [3, 5]: 38552
